Reference: US20100093745A1, “THERAPEUTIC AGENT OR PROPHYLACTIC AGENT FOR DEMYELINATING DISEASE COMPRISING AMINO ALCOHOL DERIVATIVE AS ACTIVE INGREDIENT” (priority 2007, published 2010)

System: Mouse Experimental Autoimmune Encephalomyelitis (EAE) Model
Experiment: Effect on a mouse experimental autoimmune encephalomyelitis (EAE) model
Assay type: in vivo
Settings: MBP-immunized mice, oral, once a day from the 5th day to 41st day after the immunization

C[C@](N)(CO)CCCc1ccc(Sc2cccc(C(F)(F)F)c2)cc1Cl.Cl [compound 27, (R)-2-amino-5-[2-chloro-4-(3-trifluoromethylphenylthio)phenyl]-2-methylpentan-1-ol hydrochloride]
administration dose showing maximum reaction (onset inhibition): 0.3 mg/kg | onset of disease (clinical symptom score, total score) (0.01 to 0.3 mg/kg, FIG. 1 and FIG. 2): inhibited the onset of disease dose-dependently
